Two molecules from US9896439B2, “Pyrazole-substituted arylamides as P2X3 and P2X2/3 antagonists” (Roche Palo Alto LLC, priority 2007, dated 2018) can be followed below.

The target of one assay is T1, rat P2X3 receptor (Rattus norvegicus, UniProt P49654).
T1 construct: expressed in transfected cells; host or cells: CHO-K1
T1 sequence (P49654 1-397): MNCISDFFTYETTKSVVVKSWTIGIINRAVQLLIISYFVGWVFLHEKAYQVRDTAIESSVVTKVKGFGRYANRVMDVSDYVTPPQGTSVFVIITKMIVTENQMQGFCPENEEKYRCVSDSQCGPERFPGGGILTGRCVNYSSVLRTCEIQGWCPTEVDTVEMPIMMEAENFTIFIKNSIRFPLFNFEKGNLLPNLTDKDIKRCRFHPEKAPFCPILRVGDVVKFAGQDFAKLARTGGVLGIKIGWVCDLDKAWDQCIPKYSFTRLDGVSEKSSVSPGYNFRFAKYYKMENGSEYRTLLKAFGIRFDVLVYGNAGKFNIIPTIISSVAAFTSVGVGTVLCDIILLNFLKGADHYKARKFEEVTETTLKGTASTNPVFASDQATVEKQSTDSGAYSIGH
Description: P2X3 FLIPR (Fluorometric Imaging Plate Reader) assay. It is filed as cell-based. Particulars: CHO-K1 cells transfected with cloned rat P2X3; agonist α,β-meATP 1 μM; Fluo-3 AM fluorescence; read-out: pIC50 for the P2X3 receptor (converted). How it is done: (§1) CHO-K1 cells were transfected with cloned rat P2X3 or human P2X2/3 receptor subunits and passaged in flasks. 18-24 hours before the FLIPR experiment, cells were released from their flasks, centrifuged, and resuspended in nutrient medium at 2.5×10^5 cells/ml. The cells were aliquoted into black-walled 96-well plates at a density of 50,000 cells/well and incubated overnight in 5% CO2 at 37° C. On the day of the experiment, cells were washed in FLIPR buffer (calcium- and magnesium-free Hank's balanced salt solution, 10 mM HEPES, 2 mM CaCl2, 2.5 mM probenecid; FB). Each well received 100 μl FB and 100 μl of the fluorescent dye Fluo-3 AM [2 μM final conc.]. […]
(§2) Test compounds (dissolved in DMSO at 10 mM and serially diluted with FB) or vehicle were added to each well (25 μl of a 4× solution) and allowed to equilibrate for 20 minutes at room temperature. The plates were then placed in the FLIPR and a baseline fluorescence measurement (excitation at 488 nm and emission at 510-570 nm) was obtained for 10 seconds before a 100 μl/well agonist or vehicle addition. […] Fluorescence was measured for an additional 2 minutes at 1 second intervals after agonist addition. A final addition of ionomycin (5 μM, final concentration) was made to each well of the FLIPR test plate to establish cell viability and maximum fluorescence of dye-bound cytosolic calcium. […]

The target in another assay is T2, human P2X2/3 receptor (Homo sapiens, UniProt P56373+Q9UBL9).
T2 construct: expressed in transfected cells; host or cells: CHO-K1
T2 sequence (Q9UBL9 1-471): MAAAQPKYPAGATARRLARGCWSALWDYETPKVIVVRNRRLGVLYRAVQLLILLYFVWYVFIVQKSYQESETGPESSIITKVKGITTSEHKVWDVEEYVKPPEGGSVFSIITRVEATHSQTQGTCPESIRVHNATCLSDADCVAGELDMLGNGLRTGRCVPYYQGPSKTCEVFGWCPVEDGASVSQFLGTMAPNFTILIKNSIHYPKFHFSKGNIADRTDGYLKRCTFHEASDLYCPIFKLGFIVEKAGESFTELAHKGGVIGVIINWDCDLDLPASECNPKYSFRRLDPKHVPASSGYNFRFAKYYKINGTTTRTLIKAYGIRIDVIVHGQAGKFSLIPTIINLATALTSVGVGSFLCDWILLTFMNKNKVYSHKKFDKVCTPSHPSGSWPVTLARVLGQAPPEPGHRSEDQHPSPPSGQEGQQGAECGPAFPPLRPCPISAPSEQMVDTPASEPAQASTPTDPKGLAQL
T2 sequence (P56373 1-397): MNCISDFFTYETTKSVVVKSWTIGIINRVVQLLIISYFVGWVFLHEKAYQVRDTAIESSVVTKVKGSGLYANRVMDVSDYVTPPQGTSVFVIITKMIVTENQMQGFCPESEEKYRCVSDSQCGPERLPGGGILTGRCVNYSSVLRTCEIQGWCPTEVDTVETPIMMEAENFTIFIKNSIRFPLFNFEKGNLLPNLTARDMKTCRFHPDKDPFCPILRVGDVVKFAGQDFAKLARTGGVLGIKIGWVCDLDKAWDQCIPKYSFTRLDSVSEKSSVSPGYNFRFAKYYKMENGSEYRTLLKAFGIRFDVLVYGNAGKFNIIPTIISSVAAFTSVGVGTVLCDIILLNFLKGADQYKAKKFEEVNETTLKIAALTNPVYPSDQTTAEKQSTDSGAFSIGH
Description: P2X2/3 FLIPR (Fluorometric Imaging Plate Reader) assay. The conditions noted are these: CHO-K1 cells transfected with human P2X2/3; agonist α,β-meATP 5 μM; Fluo-3 AM fluorescence; read-out: pKi for the P2X2/3 receptor (converted). It is filed as cell-based. How it is done:
as §1, §2

The structures appear in SMILES notation.

Turning to `Cc1ccc(-c2cc(C(=O)N[C@@H](C)CO)cc(-c3ccnn3C3CCC3)c2)nc1` [Compound 70, 3-(2-Cyclobutyl-2H-pyrazol-3-yl)-N-((S)-2-hydroxy-1-methyl-ethyl)-5-(5-methyl-pyridin-2-yl)-benzamide], at rat P2X3 receptor, the IC50 was around 2.14 nM. For the molecule `Cc1ccc(-c2cc(C(=O)NCc3ccc(C)nn3)cc(-n3nccc3CC(C)C)c2)nc1` [Compound 101, 3-(5-Isobutyl-pyrazol-1-yl)-N-(6-methyl-pyridazin-3-ylmethyl)-5-(5-methyl-pyridin-2-yl)-benzamide], the Ki at human P2X2/3 receptor was around 21.4 nM.
